# Like-named read-outs stand apart in the source and are kept apart here.
# Target: hP2X3 (human purinergic P2X receptor subtype 3) (Homo sapiens (Human), UniProt P56373)
# Assay: FLIPR calcium assay, hP2X3 expressed in HEK293 cells
# Assay type: cell-based
# Details: read-out: P2X3 IC50
# [1] = HEK293 cells expressing hP2X3, agonist BZ-ATP 2.5 μM, class symbols
# hP2X3 (human purinergic P2X receptor subtype 3), sequence (P56373 whole entry): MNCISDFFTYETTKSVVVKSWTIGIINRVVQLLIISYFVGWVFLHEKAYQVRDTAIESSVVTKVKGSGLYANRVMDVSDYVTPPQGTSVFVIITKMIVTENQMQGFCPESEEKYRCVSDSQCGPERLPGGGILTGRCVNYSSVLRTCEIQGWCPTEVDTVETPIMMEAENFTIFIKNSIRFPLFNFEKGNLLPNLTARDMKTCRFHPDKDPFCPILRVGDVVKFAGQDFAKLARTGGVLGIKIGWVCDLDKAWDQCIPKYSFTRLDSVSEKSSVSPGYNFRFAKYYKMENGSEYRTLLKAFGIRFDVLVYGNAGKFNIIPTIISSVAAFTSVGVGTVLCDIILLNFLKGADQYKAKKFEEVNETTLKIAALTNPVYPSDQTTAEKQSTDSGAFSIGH
SMILES,IC50 [µM],IC50 [1] [µM]
"COC(=O)N1CCO[C@@H](Cc2c(-c3c(F)cc(-n4ccc(C(=O)O)n4)cc3F)nc3cc(C)ccn23)C1 [Compound 125, (S)-1-(3,5-difluoro-4-(3-((4-(methoxycarbonyl)morpholin-2-yl)methyl)-7-methylimidazo[1,2-a]pyridin-2-yl)phenyl)-1H-pyrazole-3-carboxylic acid]",< 0.01,–
COC(=O)N1CCO[C@@H](Cc2c(-c3ccc(S(N)(=O)=O)nc3Cl)nc3cc(C)ccn23)C1 [Compound 190],< 0.01,–
COC(=O)N1CCO[C@@H](Cc2c(-c3c(F)cc(NC(=O)CC4(C(=O)O)CC4)cc3F)nc3cc(C)ccn23)C1 [Compound 95],0.01 to 0.05,–
"CNC(=O)c1cc(F)c(-c2cc3cc(C)ccc3n2C[C@H]2CN(C(=O)OC)CCO2)c(F)c1 [Compound 40, methyl (S)-2-((2-(2,6-difluoro-4-(methylcarbamoyl)phenyl)-5-methyl-1H-indol-1-yl)methyl)morpholine-4-carboxylate]",–,0.2 to 5
COC(=O)N1CCO[C@@H](Cc2c(-c3c(F)cc(C4(N)COC4)cc3F)nc3cc(C)ccn23)C1 [Compound 70],0.01 to 0.05,–
COC(=O)N1CCO[C@@H](Cc2c(-c3c(F)cc(N4C=CCC4=O)cc3F)nc3cc(C)ccn23)C1 [Compound 100],0.01 to 0.05,–
COC(=O)N1CCO[C@@H](Cc2c(-c3c(F)cc(Nc4ccc(Cl)o4)cc3F)nc3cc(C)ccn23)C1 [Compound 72],0.05 to 0.2,–
"COC(=O)N1CCO[C@@H](Cc2c(-c3c(F)cc(NC(C)=O)cc3F)nc3cc(CF)ccn23)C1 [Compound 150, methyl (S)-2-((2-(4-acetamido-2,6-difluorophenyl)-7-(fluoromethyl)imidazo[1,2-a]pyridin-3-yl)methyl)morpholine-4-carboxylate]",< 0.01,–
"COC(=O)N1CCO[C@@H](Cc2c(-c3c(F)cc(-n4cc(N)cn4)cc3F)nc3cc(C)ccn23)C1 [Compound 127, methyl (S)-2-((2-(4-(4-amino-1H-pyrazol-1-yl)-2,6-difluorophenyl)-7-methylimidazo[1,2-a]pyridin-3-yl)methyl)morpholine-4-carboxylate]",< 0.01,–
COC(=O)N1CCO[C@@H](Cc2c(-c3c(F)cc(-n4ccoc4=O)cc3F)nc3cc(C)ccn23)C1 [Compound 99],0.01 to 0.05,–
CCC(=O)N1CCO[C@@H](Cc2c(-c3c(F)cc(NC(C)=O)cc3F)nc3cc(CF)ccn23)C1 [Compound 155],< 0.01,–
COC(=O)N1CCO[C@@H](Cc2c(-c3c(F)cc(-n4cc[nH]c4=O)cc3F)nc3cc(C)ccn23)C1 [Compound 98],0.01 to 0.05,–
"CCOC(=O)c1cn(-c2cc(F)c(-c3nc4cc(C)ccn4c3C[C@H]3CN(C(=O)OC)CCO3)c(F)c2)cn1 [Compound 51, methyl (S)-2-((2-(4-(4-(carbethoxy<ethoxycarbonyl>)-1H-imidazol-1-yl)-2,6-difluorophenyl)-7-methylimidazo[1,2-a]pyridin-3-yl)methyl)morpholine-4-carboxylate]",0.05 to 0.2,–
COC(=O)N1CCO[C@@H](Cc2c(-c3c(F)cc(-c4ncco4)cc3F)nc3cc(CF)ccn23)C1 [Compound 123],0.05 to 0.2,–
"CNC(=O)c1cc(F)c(-c2nc3cc(C)ncn3c2C[C@H]2CN(C(=O)OC)CCO2)c(F)c1 [Compound 42, methyl (S)-2-((2-(2,6-difluoro-4-(methylcarbamoyl)phenyl)-7-methylimidazo[1,2-c]pyrimidin-3-yl)methyl)morpholine-4-carboxylate]",< 0.01,–
"CCC(=O)N1CCO[C@@H](Cc2c(-c3c(F)cc(-c4ccc(C#N)s4)cc3F)nc3cc(C)ccn23)C1 [Compound 140, (S)-5-(3,5-difluoro-4-(7-methyl-3-((4-propionylmorpholin-2-yl)methyl)imidazo[1,2-a]pyridin-2-yl)phenyl)thiophene-2-carbonitrile]",0.05 to 0.2,–
COC(=O)N1CCO[C@@H](Cc2c(-c3c(F)cc(NC(=O)CCC(C)(C)O)cc3F)nc3cc(C)ccn23)C1 [Compound 93],0.01 to 0.05,–
CCC(=O)N1CCO[C@@H](Cc2c(-c3c(F)cc(NC(C)=O)cc3F)nc3cc(Cl)ccn23)C1 [Compound 154],< 0.01,–
COC(=O)N1CCO[C@@H](Cc2c(-c3c(F)cc(NC(=O)C#CC(=O)O)cc3F)nc3cc(C)ccn23)C1 [Compound 88],0.01 to 0.05,–
"COC(=O)N1CCO[C@@H](Cc2c(-c3c(F)cc(N4C(=O)C=CC4=O)cc3F)nc3cc(C)ccn23)C1 [Compound 28, methyl (S)-2-((2-(2,6-difluoro-4-(2,5-dioxo-2,5-dihydropyrrol-1-yl)phenyl)-7-methylimidazo[1,2-a]pyridin-3-yl)methyl)morpholine-4-carboxylate]",0.01 to 0.05,–
"CNC(=N)c1cc(F)c(-c2nc3cc(C)ccn3c2C[C@H]2CN(C(=O)OC)CCO2)c(F)c1 [Compound 8, methyl (S)-2-((2-(2,6-difluoro-4-(N-methylcarbamimidoyl)phenyl)-7-methylimidazo[1,2-a]pyridin-3-yl)methyl)morpholine-4-carboxylate]",–,0.2 to 5
"CNC(=O)c1cc(F)c(-c2oc3cc(C)ncc3c2C[C@H]2CN(C(=O)OC)CCO2)c(F)c1 [Compound 55, methyl (S)-2-((2-(2,6-difluoro-4-(methylcarbamoyl)phenyl)-6-methylfurano[3,2-c]pyridin-3-yl)methyl)morpholine-4-carboxylate]",< 0.01,–
COC(=O)N1CCO[C@@H](Cc2c(-c3c(F)cc(-c4ncco4)cc3F)nc3cc(F)ccn23)C1 [Compound 122],–,0.2 to 5

SMILES,IC50 [µM],IC50 [1] [µM]
COC(=O)N1CCO[C@@H](Cc2c(-c3c(F)cc(-n4cnc(OC)c4)cc3F)nc3cc(C)ccn23)C1 [Compound 112],–,0.2 to 5
"CNC(=O)c1cc(F)c(-c2nc3cc(C)cnc3n2C[C@H]2CN(C(=O)OC)CCO2)c(F)c1 [Compound 94, methyl (S)-2-((2-(2,6-difluoro-4-(methylcarbamoyl)phenyl)-6-methyl-3H-imidazo[4,5-b]pyridin-3-yl)methyl)morpholine-4-carboxylate]",0.05 to 0.2,–
CNC(=O)c1cc(F)c(-c2nc3n(c2C[C@H]2CN(C(=O)OC)CCO2)CCN(C)C3)c(F)c1 [Compound 62],–,0.2 to 5
CCOC(=O)N1CCO[C@@H](Cc2c(C(=O)Nc3cc(F)cc(F)c3)nc3cc(C)ccn23)C1 [Compound 20],–,0.2 to 5
COC(=O)N1CCO[C@@H](Cc2c(-c3c(F)cc(NC(=O)CC(C)C(=O)O)cc3F)nc3cc(C)ccn23)C1 (stereo partly shown) [Compound 92],0.01 to 0.05,–
COC(=O)N1CCO[C@@H](Cc2c(-c3c(F)cc(NC(=O)c4ccncc4)cc3F)nc3cc(C)ccn23)C1 [Compound 86],0.01 to 0.05,–
COC(=O)N1CCO[C@@H](Cc2c(-c3c(F)cc(-c4nc(S(N)(=O)=O)c[nH]4)cc3F)nc3cc(C)ccn23)C1 [Compound 105],< 0.01,–
COC(=O)N1CCC[C@@H](Cc2c(-c3c(F)cc(S(N)(=O)=O)cc3F)nc3cc(Cl)ccn23)C1 [Compound 188],0.009,–
"COC(=O)N1CCO[C@@H](Cc2c(-c3c(F)cc(-c4nc(Cl)c[nH]4)cc3F)nc3cc(C)ccn23)C1 [Compound 34, methyl (S)-2-((2-(4-(4-chloro-1H-imidazol-2-yl)-2,6-difluorophenyl)-7-methylimidazo[1,2-a]pyridin-3-yl)methyl)morpholine-4-carboxylate]",< 0.01,–
COC(=O)N1CCO[C@@H](Cc2c(-c3c(F)cc(NCCCC(N)=O)cc3F)nc3cc(C)ccn23)C1 [Compound 77],< 0.01,–
"COC(=O)c1cc(F)c(-c2nc3cc(C)ccn3c2C[C@H]2CN(C(=O)OC)CCO2)c(F)c1 [Compound 49, methyl (S)-2-((2-(2,6-difluoro-4-carbomethoxyphenyl)-7-methylimidazo[1,2-a]pyridin-3-yl)-methyl)morpholine-4-carboxylate]",< 0.01,–
COC(=O)N1CCO[C@@H](Cc2c(-c3cnc(NC(C)=O)[nH]3)nc3cc(C)ccn23)C1 [Compound 1],–,0.2 to 5
CNC(=O)c1cc(F)c(-c2nc3cc(C)ccn3c2CN2CCNC(=O)C2)c(F)c1 [Compound 31],–,0.2 to 5
"COC(=O)N1CCO[C@@H](Cc2c(-c3c(F)cc(-n4cc(OC)cn4)cc3F)nc3cc(C)ccn23)C1 [Compound 129, methyl (S)-2-((2-(2,6-difluoro-4-(4-methoxy-1H-pyrazol-1-yl)phenyl)-7-methylimidazo[1,2-a]pyridin-3-yl)methyl)morpholine-4-carboxylate]",0.01 to 0.05,–
"COC(=O)N1CCO[C@@H](Cc2c(-c3c(F)cc(-n4ccc(S(N)(=O)=O)c4)cc3F)nc3cc(C)ccn23)C1 [Compound 134, methyl (S) 2-((2-(2,6-difluoro-4-(3-sulfamoyl-1H-pyrrol-1-yl)phenyl)-7-methylimidazo[1,2-a]pyridin-3-yl)methyl)morpholine-4-carboxylate]",0.01 to 0.05,–
CNC(=O)c1coc(-c2nc3cc(C)ccn3c2C[C@H]2CN(C(=O)OC)CCO2)c1F [Compound 22],–,0.2 to 5
COC(=O)N1CCO[C@@H](Cc2c(-c3c(F)cc(-c4cc[nH]n4)cc3F)nc3cc(F)ccn23)C1 [Compound 103],0.05 to 0.2,–
CNC(=O)c1cc(F)c(-c2nn3cc(C)ccc3c2C[C@H]2CN(C(=O)OC)CCO2)c(F)c1 [Compound 57],< 0.01,–
"COC(=O)N1CCO[C@@H](Cc2c(-c3c(F)cc(-n4cnnc4)cc3F)nc3cc(C)ccn23)C1 [Compound 143, methyl (S)-2-((2-(2,6-difluoro-4-(4H-1,2,4-triazol-4-yl)phenyl)-7-methylimidazo[1,2-a]pyridin-3-yl)methyl)morpholine-4-carboxylate]",< 0.01,–
CNC(=O)c1csc(-c2nc3cc(C)ccn3c2C[C@H]2CN(C(=O)OC)CCO2)c1F [Compound 23],–,0.2 to 5
COC(=O)N1CCO[C@@H](Cc2c(-c3c(F)cc(-n4cnc(C5(C(=O)O)CC5)c4)cc3F)nc3cc(C)ccn23)C1 [Compound 113],–,0.2 to 5
"COC(=O)N1CCO[C@@H](Cc2c(-c3c(F)cc(-n4cc(O)cn4)cc3F)nc3cc(C)ccn23)C1 [Compound 128, methyl (S)-2-((2-(2,6-difluoro-4-(4-hydroxy-1H-pyrazol-1-yl)phenyl)-7-methylimidazo[1,2-a]pyridin-3-yl)methyl)morpholine-4-carboxylate]",–,0.2 to 5
CCC(=O)N1CCO[C@@H](Cc2c(-c3c(F)cc(NC(C)=O)cc3F)nc3cc(C)ccn23)C1 [Compound 156],< 0.01,–

# — patent US20240034729A9, “HETEROCYCLIC COMPOUND, INTERMEDIATE, PREPARATION METHOD THEREFOR AND APPLICATION THEREOF” (WUHAN LL SCIENCE AND TECHNOLOGY DEVELOPMENT CO., LTD., priority 2018, published 2024)
